{
  "source": "PubChem BioAssay AID1963972",
  "about": "(Molecular Pharmacology Branch, DTP, NCI, 2024)",
  "tested_on": "945468-187-T-J2-PDC spheroids viability",
  "test": "Anticancer human tumor 945468-187-T-J2-PDC patient-derived rectal carcinoma cell line growth inhibition [PI3K]",
  "conditions": "spheroids with HUVEC and MSC; for pIC50: curve of first compound; for viability, T/C: stronger effect = lower value",
  "how_it_was_run": "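Tumor cells were combined with HUVEC and MSCs into spheroids, then dosed with PI3K-inhibitor combinations over half-log ranges capped near clinical Cmax or 10 microM.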",
  "note": "pIC50: −log10 of the molar value.",
  "data": [
    {"molecule": "CC(C)n1nc(-c2ccc3oc(N)nc3c2)c2c(N)ncnc21", "note": "+ COc1c(OCCCN2CCOCC2)ccc2c3n(c(=NC(=O)c4cnc(N)nc4)nc12)CCN3;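 further: spheroids exposed to compounds for seven days before reading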", "values": [
      {"measurement": "pIC50", "setting": "second compound 0.00316 µM", "value": "< 7.00"},
      {"measurement": "pIC50", "setting": "second compound 0.01 µM", "value": "< 7.00"},
      {"measurement": "pIC50", "setting": "second compound 0.0316 µM", "value": 7.22},
      {"measurement": "pIC50", "setting": "second compound 0.1 µM", "value": 7.69},
      {"measurement": "pIC50", "setting": "second compound 0.316 µM", "value": "> 9.50"},
      {"measurement": "pIC50", "setting": "second compound 1 µM", "value": "> 9.50"},
      {"measurement": "viability, T/C", "setting": "second compound 0.00316 µM, first compound 0.000316 µM", "value": 82.4, "unit": "%"},
      {"measurement": "viability, T/C", "setting": "second compound 0.00316 µM, first compound 0.001 µM", "value": 83.8, "unit": "%"},
      {"measurement": "viability, T/C", "setting": "second compound 0.00316 µM, first compound 0.00316 µM", "value": 81.7, "unit": "%"},
      {"measurement": "viability, T/C", "setting": "second compound 0.00316 µM, first compound 0.01 µM", "value": 84.3, "unit": "%"},
      {"measurement": "viability, T/C", "setting": "second compound 0.00316 µM, first compound 0.0316 µM", "value": 73.6, "unit": "%"},
      {"measurement": "viability, T/C", "setting": "second compound 0.00316 µM, first compound 0.1 µM", "value": 61.1, "unit": "%"},
      {"measurement": "viability, T/C", "setting": "second compound 0.01 µM, first compound 0.000316 µM", "value": 120, "unit": "%"},
      {"measurement": "viability, T/C", "setting": "second compound 0.01 µM, first compound 0.001 µM", "value": 109, "unit": "%"},
      {"measurement": "viability, T/C", "setting": "second compound 0.01 µM, first compound 0.00316 µM", "value": 80.7, "unit": "%"},
      {"measurement": "viability, T/C", "setting": "second compound 0.01 µM, first compound 0.01 µM", "value": 82.7, "unit": "%"},
      {"measurement": "viability, T/C", "setting": "second compound 0.01 µM, first compound 0.0316 µM", "value": 66.6, "unit": "%"},
      {"measurement": "viability, T/C", "setting": "second compound 0.01 µM, first compound 0.1 µM", "value": 66.1, "unit": "%"},
      {"measurement": "viability, T/C", "setting": "second compound 0.0316 µM, first compound 0.000316 µM", "value": 77.1, "unit": "%"},
      {"measurement": "viability, T/C", "setting": "second compound 0.0316 µM, first compound 0.001 µM", "value": 85.8, "unit": "%"},
      {"measurement": "viability, T/C", "setting": "second compound 0.0316 µM, first compound 0.00316 µM", "value": 116, "unit": "%"},
      {"measurement": "viability, T/C", "setting": "second compound 0.0316 µM, first compound 0.01 µM", "value": 86, "unit": "%"},
      {"measurement": "viability, T/C", "setting": "second compound 0.0316 µM, first compound 0.0316 µM", "value": 79.1, "unit": "%"},
      {"measurement": "viability, T/C", "setting": "second compound 0.0316 µM, first compound 0.1 µM", "value": 27.4, "unit": "%"},
      {"measurement": "viability, T/C", "setting": "second compound 0.1 µM, first compound 0.000316 µM", "value": 76.2, "unit": "%"},
      {"measurement": "viability, T/C", "setting": "second compound 0.1 µM, first compound 0.001 µM", "value": 76.2, "unit": "%"},
      {"measurement": "viability, T/C", "setting": "second compound 0.1 µM, first compound 0.00316 µM", "value": 61.5, "unit": "%"},
      {"measurement": "viability, T/C", "setting": "second compound 0.1 µM, first compound 0.01 µM", "value": 75.6, "unit": "%"},
      {"measurement": "viability, T/C", "setting": "second compound 0.1 µM, first compound 0.0316 µM", "value": 36.2, "unit": "%"},
      {"measurement": "viability, T/C", "setting": "second compound 0.1 µM, first compound 0.1 µM", "value": 16.7, "unit": "%"},
      {"measurement": "viability, T/C", "setting": "second compound 0.316 µM, first compound 0.000316 µM", "value": 36.5, "unit": "%"},
      {"measurement": "viability, T/C", "setting": "second compound 0.316 µM, first compound 0.001 µM", "value": 31.8, "unit": "%"},
      {"measurement": "viability, T/C", "setting": "second compound 0.316 µM, first compound 0.00316 µM", "value": 26.5, "unit": "%"},
      {"measurement": "viability, T/C", "setting": "second compound 0.316 µM, first compound 0.01 µM", "value": 25.4, "unit": "%"},
      {"measurement": "viability, T/C", "setting": "second compound 0.316 µM, first compound 0.0316 µM", "value": 17.6, "unit": "%"},
      {"measurement": "viability, T/C", "setting": "second compound 0.316 µM, first compound 0.1 µM", "value": 10.9, "unit": "%"},
      {"measurement": "viability, T/C", "setting": "second compound 1 µM, first compound 0.000316 µM", "value": 20.2, "unit": "%"},
      {"measurement": "viability, T/C", "setting": "second compound 1 µM, first compound 0.001 µM", "value": 22.1, "unit": "%"},
      {"measurement": "viability, T/C", "setting": "second compound 1 µM, first compound 0.00316 µM", "value": 17.7, "unit": "%"},
      {"measurement": "viability, T/C", "setting": "second compound 1 µM, first compound 0.01 µM", "value": 13.8, "unit": "%"},
      {"measurement": "viability, T/C", "setting": "second compound 1 µM, first compound 0.0316 µM", "value": 12.1, "unit": "%"},
      {"measurement": "viability, T/C", "setting": "second compound 1 µM, first compound 0.1 µM", "value": 11.3, "unit": "%"}
    ]},
    {"molecule": "Cn1cnc2c(F)c(Nc3ccc(Br)cc3Cl)c(C(=O)NOCCO)cc21", "note": "+ Cc1nc(NC(=O)N2CCCC2C(N)=O)sc1-c1ccnc(C(C)(C)C(F)(F)F)c1", "values": [
      {"measurement": "pIC50", "setting": "second compound 0.0316 µM", "value": "< 5.52"},
      {"measurement": "pIC50", "setting": "second compound 0.1 µM", "value": "< 5.52"},
      {"measurement": "pIC50", "setting": "second compound 0.316 µM", "value": "< 5.52"},
      {"measurement": "pIC50", "setting": "second compound 1 µM", "value": "< 5.52"},
      {"measurement": "pIC50", "setting": "second compound 3.16 µM", "value": 5.59},
      {"measurement": "pIC50", "setting": "second compound 10 µM", "value": 6.05},
      {"measurement": "viability, T/C", "setting": "second compound 0.0316 µM, first compound 0.00949 µM", "value": 87.9, "unit": "%"},
      {"measurement": "viability, T/C", "setting": "second compound 0.0316 µM, first compound 0.03 µM", "value": 73.6, "unit": "%"},
      {"measurement": "viability, T/C", "setting": "second compound 0.0316 µM, first compound 0.0949 µM", "value": 79.8, "unit": "%"},
      {"measurement": "viability, T/C", "setting": "second compound 0.0316 µM, first compound 0.3 µM", "value": 71.8, "unit": "%"},
      {"measurement": "viability, T/C", "setting": "second compound 0.0316 µM, first compound 0.949 µM", "value": 66.7, "unit": "%"},
      {"measurement": "viability, T/C", "setting": "second compound 0.0316 µM, first compound 3 µM", "value": 62, "unit": "%"},
      {"measurement": "viability, T/C", "setting": "second compound 0.1 µM, first compound 0.00949 µM", "value": 110, "unit": "%"},
      {"measurement": "viability, T/C", "setting": "second compound 0.1 µM, first compound 0.03 µM", "value": 84.5, "unit": "%"},
      {"measurement": "viability, T/C", "setting": "second compound 0.1 µM, first compound 0.0949 µM", "value": 88.9, "unit": "%"},
      {"measurement": "viability, T/C", "setting": "second compound 0.1 µM, first compound 0.3 µM", "value": 77.4, "unit": "%"},
      {"measurement": "viability, T/C", "setting": "second compound 0.1 µM, first compound 0.949 µM", "value": 70.9, "unit": "%"},
      {"measurement": "viability, T/C", "setting": "second compound 0.1 µM, first compound 3 µM", "value": 63.1, "unit": "%"},
      {"measurement": "viability, T/C", "setting": "second compound 0.316 µM, first compound 0.00949 µM", "value": 99, "unit": "%"},
      {"measurement": "viability, T/C", "setting": "second compound 0.316 µM, first compound 0.03 µM", "value": 74.1, "unit": "%"},
      {"measurement": "viability, T/C", "setting": "second compound 0.316 µM, first compound 0.0949 µM", "value": 82.4, "unit": "%"},
      {"measurement": "viability, T/C", "setting": "second compound 0.316 µM, first compound 0.3 µM", "value": 75.1, "unit": "%"},
      {"measurement": "viability, T/C", "setting": "second compound 0.316 µM, first compound 0.949 µM", "value": 68.7, "unit": "%"},
      {"measurement": "viability, T/C", "setting": "second compound 0.316 µM, first compound 3 µM", "value": 69.4, "unit": "%"},
      {"measurement": "viability, T/C", "setting": "second compound 1 µM, first compound 0.00949 µM", "value": 71.7, "unit": "%"},
      {"measurement": "viability, T/C", "setting": "second compound 1 µM, first compound 0.03 µM", "value": 114, "unit": "%"},
      {"measurement": "viability, T/C", "setting": "second compound 1 µM, first compound 0.0949 µM", "value": 80.6, "unit": "%"},
      {"measurement": "viability, T/C", "setting": "second compound 1 µM, first compound 0.3 µM", "value": 76.6, "unit": "%"},
      {"measurement": "viability, T/C", "setting": "second compound 1 µM, first compound 0.949 µM", "value": 66.5, "unit": "%"},
      {"measurement": "viability, T/C", "setting": "second compound 1 µM, first compound 3 µM", "value": 55.6, "unit": "%"},
      {"measurement": "viability, T/C", "setting": "second compound 3.16 µM, first compound 0.00949 µM", "value": 68.6, "unit": "%"},
      {"measurement": "viability, T/C", "setting": "second compound 3.16 µM, first compound 0.03 µM", "value": 78, "unit": "%"},
      {"measurement": "viability, T/C", "setting": "second compound 3.16 µM, first compound 0.0949 µM", "value": 97.3, "unit": "%"},
      {"measurement": "viability, T/C", "setting": "second compound 3.16 µM, first compound 0.3 µM", "value": 67.8, "unit": "%"},
      {"measurement": "viability, T/C", "setting": "second compound 3.16 µM, first compound 0.949 µM", "value": 70.8, "unit": "%"},
      {"measurement": "viability, T/C", "setting": "second compound 3.16 µM, first compound 3 µM", "value": 47.1, "unit": "%"},
      {"measurement": "viability, T/C", "setting": "second compound 10 µM, first compound 0.00949 µM", "value": 77.3, "unit": "%"},
      {"measurement": "viability, T/C", "setting": "second compound 10 µM, first compound 0.03 µM", "value": 68.2, "unit": "%"},
      {"measurement": "viability, T/C", "setting": "second compound 10 µM, first compound 0.0949 µM", "value": 68.8, "unit": "%"},
      {"measurement": "viability, T/C", "setting": "second compound 10 µM, first compound 0.3 µM", "value": 61.2, "unit": "%"},
      {"measurement": "viability, T/C", "setting": "second compound 10 µM, first compound 0.949 µM", "value": 51.8, "unit": "%"},
      {"measurement": "viability, T/C", "setting": "second compound 10 µM, first compound 3 µM", "value": 10.5, "unit": "%"}
    ]}
  ]
}
